Marks after values point to notes of the source that are not given here. Where a SMILES comes first, the peptide text is derived from it. Bridges are numbered along the chain shown (N, C = ends). Side-chain parts run from the residue outwards. [ ]: non-standard residue; d: D form. Mpa = O=C(O)CCS
Experiments:
[1] = Antidiuretic assay in rats, calibrated against arginine-vasopressin; assay type: in vivo, male Sprague-Dawley rats; settings: for Peak Potency (antidiuretic activity): 200g male Sprague-Dawley rats, calibrated against arginine-vasopressin; for Mean Peak Potency (Product) F: antidiuretic activity, peak potency multiplied by F; for Ratio of Half-Life of Compound to Parent Half-Life (F): antidiuretic response; for antidiuretic activity (in words): comment on Table 4
[2] = system: Factor VIII; assay: Factor VIII release, clotting assay in male canine citrated plasma; assay type: in vivo; settings: for Factor VIII Releasing Activity: male canine citrated plasma, calibrated against desmopressin
Protocol: Pressor and antidiuretic assays of the compounds of Examples I-IV were carried out in 200g body weight, male Sprague-Dawley rats using the techniques reported by Schaechtelin et al in "Enhancement of the Activity of Angiotensin II by Certain Cations," Molec. Pharmacol., 10, 57-67 (1974) and Cort et al in "Role of the Disulfide Bridge and the C-Terminal Tripeptide in the Anti-diuretic Action of Vasopressin in Man and the Rat", Kidney Internat. , 8, 292-302 (1975), with calibration of responses against a 3-point curve using highly purified arginine-vasopressin of known activity. Similar tests were performed on known vasopressin analogs for purposes of comparison. In addition, the release of Factor VIII by the compounds of Examples I-IV was tested in male canine citrated plasna using the clotting assay described by Prowse et al, in Brit. J. Haematol., 41, 437 (1979), and the results were calibrated against the Factor VIII releasing activity of desmopressin. In all cases, the half-lives of the responses were compared to the standard at equi-peak-potent levels.

[3] = Pressor assay in rats, calibrated against arginine-vasopressin; assay type: in vivo, male Sprague-Dawley rats; settings: for Peak Potency (pressor activity): 200g male Sprague-Dawley rats, calibrated against arginine-vasopressin; for pressor activity (in words): comment on Table 3; for Mean Peak Potency (Product) F: pressor activity, peak potency multiplied by F; for Ratio of Half-Life of Compound to Parent Half-Life (F): pressor response
[4] = system: Factor VIII; assay: Factor VIII releasing activity in pentothal-anesthetized dogs, standard clotting assay; assay type: in vivo; settings: for Factor VIII Releasing Activity: dogs
Protocol: The 9-Ala-NH2 analogs of Examples XII and XIII were evaluated for ability to stimulate production of Factor VIII by administration to pentothal-anesthestized dogs. These analogs, as well as desmopressin used as a control, were administered i.v. into the external jugular vein at a dose of 10 meg/kg body weight. Factor VIII analysis was performed by standard clotting assay (using normal dog plasma as 100% clotting and severely hemophilic dog plasma as 0% for the standard curve) just prior to injection, and at periodic intervals for up to 4 hours after injection.

[5] = Pre-Injection, normal dog plasma = 100% clotting

Row | Compound | Peak Potency (antidiuretic activity) [1] [IU/mg] | Mean Peak Potency (Product) F [1] | Ratio of Half-Life of Compound to Parent Half-Life (F) ([1]; comparator not given) | antidiuretic activity (in words) [1] | Factor VIII Releasing Activity [2] [%] | Peak Potency (pressor activity) [3] [IU/mg] | pressor activity (in words) [3] | Mean Peak Potency (Product) F [3] | Ratio of Half-Life of Compound to Parent Half-Life (F) ([3]; as compared to [2-Phe,8-Lys]-vasopressin) | Factor VIII Releasing Activity ([4]; 15 min. after i.v. 10 meg/kg) [%] | Factor VIII Releasing Activity ([4]; 60 min. after i.v. 10 meg/kg) [%] | Factor VIII Releasing Activity ([4]; 120 min. after i.v. 10 meg/kg) [%] | Factor VIII Releasing Activity ([4]; 240 min. after i.v. 10 meg/kg) [%] | Factor VIII Releasing Activity [4, 5] [%] | Ratio of Half-Life of Compound to Parent Half-Life (F) ([3]; as compared to [8-Lys]-vasopressin (footnote *)) | Factor VIII releasing activity (in words) ([4]; comment on Table 6, 4 hours after injection) | Ratio of Half-Life of Compound to Parent Half-Life (F) ([1]; as compared to 1-desamino-[8-Lys]-vasopressin (footnote *)) | Factor VIII releasing activity (in words) ([2]; comment on Table 5)
1 | NCC(=O)NCCCC[C@H](NC(=O)[C@@H]1CCCN1C(=O)[C@@H]1CSSCCC(=O)N[C@@H](Cc2ccccc2)C(=O)N[C@@H](Cc2ccccc2)C(=O)N[C@@H](CCC(N)=O)C(=O)N[C@@H](CC(N)=O)C(=O)N1)C(=O)NCC(N)=O [Example I, l-Desamino-[2-Phe, 8-N^ε-Lys(Gly)]-Vasopressin] ([Mpa]FFQNCPK(Gly)G-NH2; disulfide 1-6) | 6 | 24 | 4.0 | low antidiuretic activity | 101 | 6.9 | prolonged pressor activity of higher potency than that of tGLVP | 60 | 8.7** |  |  |  |  |  |  |  |  | 
2 | C[C@@H](NC(=O)[C@H](CCCCNC(=O)CNC(=O)CNC(=O)CN)NC(=O)[C@@H]1CCCN1C(=O)[C@@H]1CSSCCC(=O)N[C@@H](Cc2ccc(O)cc2)C(=O)N[C@@H](Cc2ccccc2)C(=O)N[C@@H](CCC(N)=O)C(=O)N[C@@H](CC(N)=O)C(=O)N1)C(N)=O [Example XII, 1-Desamino-[8-N^9-Lys(Gly-Gly-Gly), 9-D-Ala]-vasopressin] ([Mpa]YFQNCPK([Gly-Gly-Gly])[dA]-NH2; disulfide 1-6) |  |  |  |  |  |  |  |  |  | 110 | 165 | 185 | 220 | 100 |  |  |  | 
3 | NCCCC[C@H](NC(=O)[C@@H]1CCCN1C(=O)[C@@H]1CSSCCC(=O)N[C@@H](Cc2ccc(O)cc2)C(=O)N[C@@H](Cc2ccccc2)C(=O)N[C@@H](CCC(N)=O)C(=O)N[C@@H](CC(N)=O)C(=O)N1)C(=O)NCC(N)=O [1-desamino-[8-Lys]-vasopressin, reference compound] | 300 | 450 | 1.5 |  |  | 126 |  | 189 |  |  |  |  |  |  | 1.5* |  |  | 
4 | Desmopressin [reference compound] |  |  |  |  | 250 |  |  |  |  | 125 | 185 | 125 | 105 | 98 |  | substantially decreased to zero at 4 hours |  | 
5 | C[C@H](NC(=O)[C@@H](CCCCNC(=O)CNC(=O)CNC(=O)CN)NC(=O)[C@@H]1CCCN1C(=O)[C@@H]1CSSCCC(=O)N[C@@H](Cc2ccc(O)cc2)C(=O)N[C@@H](Cc2ccccc2)C(=O)N[C@@H](CCC(N)=O)C(=O)N[C@@H](CC(N)=O)C(=O)N1)C(N)=O [Example XIII, 1-Desamino-[Q-D-NE-Lys(Gly-Gly-Gly), 9-Ala-NH2]-vasopressin] ([Mpa]YFQNCP[dK]([Gly-Gly-Gly])A-NH2; disulfide 1-6) |  |  |  |  |  |  |  |  |  | 115 | 153 | 175 | 210 | 105 |  |  |  | 
6 | CC[C@H](C)[C@@H]1NC(=O)[C@H](Cc2ccc(O)cc2)NC(=O)CCSSC[C@@H](C(=O)N2CCC[C@H]2C(=O)N[C@H](CCCCNC(=O)CN)C(=O)NCC(N)=O)NC(=O)[C@H](CC(N)=O)NC(=O)[C@H](CCC(N)=O)NC1=O [Example III, 1-Desamino-[8-D-N^ε-Lys(Gly)]-Vasotocin] ([Mpa]YIQNCP[dK](Gly)G-NH2; disulfide 1-6) | 290 | 1508 |  | considerable antidiuretic activity | 165 | 0.1 | substantially devoid of pressor activity |  |  |  |  |  |  |  |  |  | 5.2* | significant activity in releasing Factor VIII

Reference: patent EP0037516A1, “N-omega substituted derivatives of 1-Desamino-vasopressin analogs” (VEGA LABORATORIES, INC., priority 1980, dated 1981)
